Data published in US12239132B2, “Compounds and methods for increasing soil nutrient availability” (SOUND AGRICULTURE COMPANY, priority 2018, dated 2025).
“Also recorded” adds a separate entry of the source.

How the values were obtained:
lettuce = assay: Field trials in lettuce; assay type: in vivo; conditions: field trial
corn = assay: Corn field trials in Iowa, nitrogen deficiency; assay type: in vivo
Description: In some instances, disclosed herein is a field trial of AB09 application to corn plants.
In some instances, disclosed herein is an aerial photograph description of a large scale strip field trial of corn plants applied with a compound, formulation, method, container, or kit disclosed herein, for example AB09. […] Greener (less yellow) coloring is indicative of healthier plants.
AB09 was applied to Buckingham, Iowa corn plots at the start of the season. In some instances, disclosed herein is a photo of corn at stage R3, with a treated plot on the right, and an untreated plot […]. Leaf firing (yellowing on the lower leaves) is apparent on the untreated plot, where AB09 plants are greener. In some instances, disclosed herein is an aerial image of treated and untreated plots at tasseling. […] Nitrogen content was quantified using a standard tissue sampling test to measure percent nitrogen content in leaf tissue samples.

[1] = Field trial of soil phosphate depletion on Iowa farmland; assay type: in vivo; conditions: Iowa field plots, vs untreated plots
Method: Available soil phosphate was measured at the beginning of the growing season (Pre VT) and at the end of the growing season (Post VT).
The solubilizing activity of AB09 was measured in field trials on Iowa farmland. Over the course of a growing season, plants pull available phosphate from the soil, resulting in lower levels at the end of the season versus at the beginning. This phosphate depletion can be measured with standard soil tests.

soil consortia cultures = assay: Phosphate solubilization in soil-inoculated NBRIP cultures; assay type: cell-based
Method: To select for the native soil microbial consortia that solubilize phosphorus, a small quantity of soil was inoculated into flask cultures of NBRIP media. Flasks were treated with increasing amounts of AB09 and grown at room temperature on orbital shakers for 4 days. The cleared supernatant of the soil cultures were quantified for available phosphorus using the malachite green method.
FIG. 3. AB09 induced phosphate solubilization activity occurs in a dose-dependent manner in soil consortia cultures. 50 mL of NBRIP growth medium was added to 250 mL baffled flasks, containing 500 mg of 2 mm particle-sized soil, to select for phosphate solubilizing microbes. Flasks with sterilized foam caps were placed on orbital shakers at 110 RPM for 4 days at room temperature. Orthophosphate was measured using the malachite-green phosphate method.
50 mL of NBRIP growth medium was added to 250 mL baffled flasks, containing 500 mg of 2 mm particle-sized soil, to select for phosphate solubilizing microbes. AB09 stock solution (10 mg/mL) was prepared in distilled water. Untreated controls received no AB09. […]
Flasks with sterilized foam caps were placed on orbital shakers at 110 RPM for 4 days at room temperature. […] Supernatant from samples were removed and placed into new microcentrifuge tubes for orthophosphate quantification using the malachite green method.

Bacillus megaterium = assay: Phosphate solubilization assay with Bacillus megaterium (liquid NBRIP, malachite green); assay type: cell-based; conditions: 100 ug/mL; for clearing (consumption) of insoluble phosphate in culture tubes, qualitative: B. megaterium in NBRIP
Method: In some aspects, a compound disclosed herein, e.g., AB09, stimulates bacterial phosphate solubilization activity. […] Cultures of B. megaterium were grown in media containing only insoluble phosphorus with and without a compound such as AB09. At the start of the experiment, there was no detectable difference of orthophosphate levels in the growth media alone and media supplemented with B. megaterium and/or AB09. Orthophosphate was measured after 72 hours of bacterial growth. Specifically, A 5 mL culture of B. megaterium was seeded from a single colony into Nutrient Broth (NB) and grown overnight in a 30° C. shaker. The cell pellet was collected by centrifugation, washed twice and resuspended in water. The concentration of B. megaterium was measured using a Nanodrop OD600 reading. B. megaterium was inoculated into liquid NBRIP media, which contains insoluble tricalcium phosphate as its sole phosphorus source. The final concentration of B. megaterium in the NBRIP media was OD600=0.02 ([…]). NBRIP media was supplemented with ML in a 1% DMSO solution to a final concentration of 100 ug/ML or 1% DMSO (both were filter sterilized through a 0.2 uM filter). Cell counts at the start of the experiment (0 hours) and at 72 hours post inoculation were measured using dilution plating. At the experiment start and after 72 hours of growth, 1 mL of culture was collected from the culture tubes. The supernatant was collected by centrifugation (5 min at 13,000 rpm). The cleared supernatant was diluted […] in molecular grade water and used for orthophosphate analysis. The remaining 4 mL of supernatant were collected by centrifugation for pH readings. Orthophosphate was measured using the malachite-green phosphate method (BioAssay Systems Malachite Green Phosphate Assay Kit Catalog No: POMG-25H). Briefly, the sample is mixed with a solution of Malachite Green and molybdate, which forms a green complex with free orthophosphate from the sample. Data are quantified on a plate reader at 620 nm. Unknown samples were run with a standard curve of known concentrations of orthophosphate. […] Phosphate solubilization in NBRIP culture media is shown at experiment start (0 h) and after 72 hours of shaking at 30° C. The left axis corresponds to box plots and whisker plots of the concentration of solubilized phosphate in the bacterial supernatant. The right axis corresponds to the pH of the supernatant. n=7 culture tubes for each B. megaterium with and without ML, and n=3 culture tubes for no bacteria with and without AB09. The malachite green phosphate assay was performed in triplicate. […] In some instances, disclosed herein are experimental culture tubes of B. megaterium growing in NBRIP without ML (AB09; leftmost two tubes) and with 100 ug/mL ML (right three tubes).
A strain of Bacillus megaterium (B. megaterium) was isolated from Iowa field soil and confirmed its ability to solubilize phosphorus by observing a cleared zone (or halo) around B. megaterium colonies when grown on solid media (NBRIP+Agar) containing only in insoluble form of phosphorus, Ca3(PO4)2. Cultures of B. megaterium were then grown in liquid NBRIP (containing only insoluble Ca3(PO4)2) with and without AB09. The growth media supernatant was analyzed for orthophosphate at the start of the experiment (0 h) and after 72 hours of growth by the malachite green quantification method.
FIG. 1A illustrates phosphate solubilization in NBRIP culture media at experiment start (0 h) and after 72 hours of shaking at 30° C. The left axis corresponds to box plots and whisker plots of the concentration of available phosphate (orthophosphate) in the bacterial supernatant. […] The malachite green phosphate assay was performed in triplicate. FIG. 1B illustrates an example of experimental culture tubes of B. megaterium growing in NBRIP without AB09 (leftmost two tubes) and with 100 ug/mL AB09 (right three tubes). […]

CC1=CC(Oc2c(C)occc2=O)OC1=O (centres unmarked) [AB09, maltol lactone]
average size of lettuce heads (lettuce): increased the average size
increase in lettuce harvest weight (lettuce): 25%
leaf firing (yellowing of the lower leaves) of corn (corn; Buckingham, Iowa corn plots, stage R3, vs untreated plot): greener; also recorded: reduced leaf firing
nitrogen content in corn leaf tissue samples (corn; compared to a control sample): higher leaf nitrogen content
yellowing of corn plants at de-tassling (corn; large scale strip field trial, aerial photograph, vs control plants): reduced yellowing
NDVI of plots at tasseling (aerial image) (corn; treated strip vs untreated plot): higher NDVI values
soil phosphate depletion over the growing season (pre VT to post VT) [1]: less phosphate depletion; also recorded: significantly reduced
increase of phosphate concentration over the untreated control (soil consortia cultures; highest treatment 25 ug/mL, 4 days, room temperature): 2-3 fold
ability of soil consortia cultures to solubilize phosphorus (soil consortia cultures; increasing amounts of AB09, 4 days): enhanced by AB09 in a dose-responsive manner
pH of the growth media (supernatant) (Bacillus megaterium; 72 hours, concurrent with phosphate solubilization increase): decrease
clearing (consumption) of insoluble phosphate in culture tubes, qualitative (Bacillus megaterium): increased clearing
clearing (consumption) of insoluble phosphate in culture tubes, qualitative (Bacillus megaterium; listed as ML): Increased consumption
average concentration of orthophosphate in B. megaterium cultures compared to control cultures (Bacillus megaterium; NBRIP media with insoluble Ca3(PO4)2, 72 hours): significantly increased
phosphate solubilization increase (Bacillus megaterium; NBRIP media, 72 hours, vs control B. megaterium cultures): two-fold
